According to patent publication US8574563B2 (Bristol-Myers Squibb Company, priority 2006, dated 2013):

system: HCV 1b-377-neo replicon cells; assay: HCV replicon assay, HCV 1b-377-neo replicon cells (1b FRET); type: cell-based, Hepatitis C virus genotype 1b; conditions: HCV 1b-377-neo replicon cells; HCV 1b genotype
In short: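 FRET-based replicon assay in HCV 1b-377-neo cells, including a comparison line carrying the NS5A Y2065H mutation that confers resistance to a reference compound.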

Compound	EC50 range against HCV 1b (Table 2, Range)
COC(=O)N[C@@H](C(=O)N1CCC[C@H]1c1ncc(-c2ccc(-c3ccc(-c4cnc([C@@H]5CCCN5C(=O)[C@H](NC(=O)OC)C5CC5)[nH]4)cc3C(=O)O)cc2)[nH]1)C1CC1 [Example M115, 4,4′-bis(2-((2S)-1-((2R)-2-cyclopropyl-2-((methoxycarbonyl)amino)acetyl)-2-pyrrolidinyl)-1H-imidazol-5-yl)-2-biphenylcarboxylic acid]	>A

same assay, conditions: HCV 1b-377-neo replicon cells; HCV 1b genotype; read-out: EC50 range against HCV 1b (Table 2, Range)

Compound	EC50 [nM]
O=C(OCc1ccccc1)N1CCN(C(C(=O)N2CCC[C@H]2c2ncc(-c3ccc(-c4ccc(-c5c[nH]c([C@@H]6CCCN6C(=O)[C@H]6CCCO6)n5)cc4)cc3)[nH]2)c2ccccc2)CC1 (single isomer, unassigned) [Example 103-5]	0.001 to 0.999
COC(=O)N[C@@H](C(=O)N1CCC[C@H]1c1ncc(-c2ccc(-c3ccc(-c4cnc([C@@H]5CCCN5C(=O)[C@H](C)NC(C)=O)[nH]4)cc3)cc2)[nH]1)c1ccccc1 [Example 54, methyl ((1R)-2-((2S)-2-(5-(4′-(2-((2S)-1-(N-acetyl-L-ananyl)-2-pyrrolidinyl)-1H-imidazol-5-yl)-4-biphenylyl)-1H-imidazol-2-yl)-1-pyrrolidinyl)-2-oxo-1-phenylethyl)carbamate]	0.001 to 0.999

same assay, conditions: Hepatitis C virus, HCV 1b-377-neo replicon cells; HCV 1b genotype; read-out: EC50 range against HCV 1b (Table 2, Range)

Compound	EC50 [nM]
CCN(CC)[C@@H](C(=O)N1CCC[C@H]1c1ncc(-c2ccc(-c3ccc(-c4cnc([C@@H]5CCCN5C(=O)C[C@@H](NC(=O)OC)C(C)C)[nH]4)cc3)cc2)[nH]1)c1ccccc1 [cj-52, methyl ((1R)-3-((2S)-2-(5-(4′-(2-((2S)-1-((2R)-2-(diethylamino)-2-phenylacetyl)-2-pyrrolidinyl)-1H-imidazol-5-yl)-4-biphenylyl)-1H-imidazol-2-yl)-1-pyrrolidinyl)-1-isopropyl-3-oxopropyl)carbamate]	0.001 to 0.999
CCN(CC)[C@@H](C(=O)N1CCC[C@H]1c1ncc(-c2ccc(-c3ccc(-c4cnc([C@@H]5CCCN5C(=O)[C@H](Nc5ncccn5)C(C)C)[nH]4)cc3)cc2)[nH]1)c1ccccc1 [cj-11k, N-((1R)-1-(((2S)-2-(5-(4′-(2-((2S)-1-((2R)-2-(diethylamino)-2-phenylacetyl)-2-pyrrolidinyl)-1H-imidazol-5-yl)-4-biphenylyl)-1H-imidazol-2-yl)-1-pyrrolidinyl)carbonyl)-2-methylpropyl)-2-pyrimidinamine]	0.001 to 0.999
COC(=O)N[C@@H](C(=O)N1CCC[C@H]1c1ncc(-c2ccc(-c3ccc(-c4cnc([C@@H]5CCCN5C(=O)[C@H](NC(=O)OC)c5ccccc5)[nH]4)cn3)cc2)[nH]1)c1ccccc1 [Example 134, methyl ((1R)-2-((2S)-2-(5-(6-(4-(2-((2S)-1-((2R)-2-((methoxycarbonyl)amino)-2-phenylacetyl)-2-pyrrolidinyl)-1H-imidazol-5-yl)phenyl)-3-pyridinyl)-1H-imidazol-2-yl)-1-pyrrolidinyl)-2-oxo-1-phenylethyl)carbamate]	0.001 to 0.999
COC(=O)N[C@@H](Cc1cscn1)C(=O)N1CCC[C@H]1c1ncc(-c2ccc(-c3ccc(-c4cnc([C@@H]5CCCN5C(=O)[C@H](Cc5cscn5)NC(=O)OC)[nH]4)cc3)cc2)[nH]1 [cj-153, methyl ((1S)-2-((2S)-2-(5-(4′-(2-((2S)-1-((2S)-2-((methoxycarbonyl)amino)-3-(1,3-thiazol-4-yl)propanoyl)-2-pyrrolidinyl)-1H-imidazol-5-yl)-4-biphenylyl)-1H-imidazol-2-yl)-1-pyrrolidinyl)-2-oxo-1-(1,3-thiazol-4-ylmethyl)ethyl)carbamate]	0.001 to 0.999
COC(=O)N[C@H](C(=O)N1CCC[C@H]1c1ncc(-c2ccc(-c3ccc(-c4cnc([C@@H]5CCCN5C(=O)[C@@H](NC(=O)OC)C(C)(C)O)[nH]4)cc3)cc2)[nH]1)C(C)(C)O [Example M14, methyl ((1S)-2-hydroxy-1-(((2S)-2-(5-(4′-(2-((2S)-1-((2S)-3-hydroxy-2-((methoxycarbonyl)amino)-3-methylbutanoyl)-2-pyrrolidinyl)-1H-imidazol-5-yl)-4-biphenylyl)-1H-imidazol-2-yl)-1-pyrrolidinyl)carbonyl)-2-methylpropyl)carbamate]	100 to 999
COC(=O)N[C@@H](C(=O)N1CCC[C@H]1c1ncc(-c2ccc(-c3ccc(-c4cnc([C@@H]5CCCN5C(=O)[C@@H](Nc5ncccn5)C(C)C)[nH]4)cc3)cc2)[nH]1)c1ccccc1 [cj-11b, methyl ((1R)-2-oxo-1-phenyl-2-((2S)-2-(5-(4′-(2-((2S)-1-(N-2-pyrimidinyl-L-valyl)-2-pyrrolidinyl)-1H-imidazol-5-yl)-4-biphenylyl)-1H-imidazol-2-yl)-1-pyrrolidinyl)ethyl)carbamate]	0.001 to 0.999
COC(=O)N[C@@H](CC(=O)N1CCC[C@H]1c1ncc(-c2ccc(-c3ccc(-c4cnc([C@@H]5CCCN5C(=O)C[C@H](NC(=O)OC)c5ccccc5)[nH]4)cc3)cc2)[nH]1)c1ccccc1 [cj-129, methyl ((1S)-3-((2S)-2-(5-(4′-(2-(1-((3S)-3-((methoxycarbonyl)amino)-3-phenylpropanoyl)-2-pyrrolidinyl)-1H-imidazol-5-yl)-4-biphenylyl)-1H-imidazol-2-yl)-1-pyrrolidinyl)-3-oxo-1-phenylpropyl)carbamate]	0.001 to 0.999
COC(=O)N[C@@H](C)C(=O)N1[C@@H]2C[C@@H]2C[C@H]1c1ncc(-c2ccc(-c3ccc(-c4cnc([C@@H]5C[C@H]6C[C@H]6N5C(=O)[C@H](C)NC(=O)OC)[nH]4)cc3)cc2)[nH]1 [Example M132, methyl ((1S)-2-((1R,3S,5R)-3-(4-(4′-(2-((1R,3S,5R)-2-(N-(methoxycarbonyl)-L-alanyl)-2-azabicyclo[3.1.0]hex-3-yl)-1H-imidazol-4-yl)-4-biphenylyl)-1H-imidazol-2-yl)-2-azabicyclo[3.1.0]hex-2-yl)-1-methyl-2-oxoethyl)carbamate]	0.001 to 0.999
CCCN(CCC)[C@H](C)C(=O)N1CCC[C@H]1c1ncc(-c2ccc(-c3ccc(-c4cnc([C@@H]5CCCN5C(=O)[C@H](C)NC(=O)OC)[nH]4)cc3)cc2)[nH]1 [Example M102, methyl ((1S)-2-((2S)-2-(5-(4′-(2-((2S)-1-(N,N-dipropyl-D-alanyl)-2-pyrrolidinyl)-1H-imidazol-5-yl)-4-biphenylyl)-1H-imidazol-2-yl)-1-pyrrolidinyl)-1-methyl-2-oxoethyl)carbamate]	1 to 99
COC(=O)N[C@@H](C(=O)N1CCC[C@H]1c1ncc(-c2ccc(-c3ccc(-c4cnc([C@@H]5CCCN5C(=O)[C@@H]5CCCN5)[nH]4)cc3)cc2)[nH]1)c1ccccc1 [Example 80, methyl ((1R)-2-oxo-1-phenyl-2-((2S)-2-(5-(4′-(2-((2S)-1-L-prolyl-2-pyrrolidinyl)-1H-imidazol-5-yl)-4-biphenylyl)-1H-imidazol-2-yl)-1-pyrrolidinyl)ethyl)carbamate]	0.001 to 0.999
COC(=O)N[C@@H](C)C(=O)N1CCC[C@H]1c1ncc(-c2ccc(-c3ccc(-c4cnc([C@@H]5CCCN5C(=O)C(c5ccccc5)N5C6CCC5CC6)[nH]4)cc3)cc2)[nH]1 (stereo partly drawn) [Example M97, methyl ((1S)-2-((2S)-2-(5-(4′-(2-((2S)-1-(7-azabicyclo[2.2.1]hept-7-yl(phenyl)acetyl)-2-pyrrolidinyl)-1H-imidazol-5-yl)-4-biphenylyl)-1H-imidazol-2-yl)-1-pyrrolidinyl)-1-methyl-2-oxoethyl)carbamate]	1 to 99
COC(=O)N[C@@H](C(=O)N1CCC[C@H]1c1ncc(-c2ccc(-c3ccc(-c4cnc([C@@H]5CCCN5C(=O)CNC(=O)c5ccccc5)[nH]4)cc3)cc2)[nH]1)c1ccccc1 [Example 84-7, methyl ((1R)-2-((2S)-2-(5-(4′-(2-((2S)-1-(N-benzoylglycyl)-2-pyrrolidinyl)-1H-imidazol-5-yl)-4-biphenylyl)-1H-imidazol-2-yl)-1-pyrrolidinyl)-2-oxo-1-phenylethyl)carbamate]	1 to 99
Cc1[nH]c([C@@H]2CCCN2C(=O)[C@@H](c2ccccc2)N2CCCCC2)nc1-c1ccc(-c2ccc(-c3cnc([C@@H]4CCCN4C(=O)[C@@H](c4ccccc4)N4CCCCC4)[nH]3)cc2)cc1 [Example E5b, 1-((1R)-2-((2S)-2-(4-(4′-(4-methyl-2-((2S)-1-((2R)-2-phenyl-2-(1-piperidinyl)acetyl)-2-pyrrolidinyl)-1H-imidazol-5-yl)-4-biphenylyl)-1H-imidazol-2-yl)-1-pyrrolidinyl)-2-oxo-1-phenylethyl)piperidine]	0.001 to 0.999
CCN(CC)[C@@H](C(=O)N1CCC[C@H]1c1ncc(-c2ccc(-c3ccc(-c4cnc([C@@H]5CCCN5C(=O)[C@H]5CC[C@@H](NC(=O)OC)C5)[nH]4)cc3)cc2)[nH]1)c1ccccc1 [cj-60, methyl ((1R,3S)-3-(((2S)-2-(5-(4′-(2-((2S)-1-((2R)-2-(diethylamino)-2-phenylacetyl)-2-pyrrolidinyl)-1H-imidazol-5-yl)-4-biphenylyl)-1H-imidazol-2-yl)-1-pyrrolidinyl)carbonyl)cyclopentyl)carbamate]	0.001 to 0.999
COC(=O)N[C@@H](C(=O)N1CCC[C@H]1c1ncc(-c2ccc(-c3ccc(-c4cnc([C@@H]5CCCN5C(=O)c5ncc[nH]5)[nH]4)cc3)cc2)[nH]1)c1ccccc1 [Example 63, methyl ((1R)-2-((2S)-2-(5-(4′-(2-((2S)-1-(1H-imidazol-2-ylcarbonyl)-2-pyrrolidinyl)-1H-imidazol-5-yl)-4-biphenylyl)-1H-imidazol-2-yl)-1-pyrrolidinyl)-2-oxo-1-phenylethyl)carbamate]	0.001 to 0.999
COC(=O)N[C@@H](C(=O)N1CCC[C@H]1c1ncc(-c2ccc(-c3ccc(-c4cnc([C@@H]5CCCN5C(=O)C5(O)CC5)[nH]4)cc3)cc2)[nH]1)c1ccccc1 [Example 60, methyl ((1R)-2-((2S)-2-(5-(4′-(2-((2S)-1-((1-hydroxycyclopropyl)carbonyl)-2-pyrrolidinyl)-1H-imidazol-5-yl)-4-biphenylyl)-1H-imidazol-2-yl)-1-pyrrolidinyl)-2-oxo-1-phenylethyl)carbamate]	0.001 to 0.999
